Test: xn = mol fraction of the nth substance listed

Oc1ccccc1 + O=C1CCCCC1
298.15 K, 101.3 kPa
Conditions | viscosity [mPa·s]
x2 = 0.79 | 2.24
x2 = 0.9 | 2.02

Oc1ccccc1 + O=Cc1ccccc1
308.15 K, 101.33 kPa
Conditions | viscosity [mPa·s]
x2 = 0.107 | 4.318
x2 = 0.303 | 2.944
x2 = 0.39 | 2.642
x2 = 0.499 | 2.401
x2 = 0.595 | 1.989
x2 = 0.706 | 1.55
x2 = 0.904 | 1.2

ClC(Cl)C(Cl)Cl + O=S1(=O)CCCC1
viscosity [mPa·s], 100 kPa
Conditions | x2 = 0.0224 | x2 = 0.1377 | x2 = 0.2568 | x2 = 0.3746 | x2 = 0.4803 | x2 = 0.5855 | x2 = 0.7134 | x2 = 0.8418 | x2 = 0.9751
303.15 K | 1.674 | 2.8 | 3.962 | 5.052 | 5.983 | 6.858 | 7.865 | 8.855 | 9.835
308.15 K | 1.537 | 2.519 | 3.525 | 4.469 | 5.292 | 6.043 | 6.927 | 7.779 | 8.631
313.15 K | 1.417 | 2.285 | 3.173 | 4.004 | 4.72 | 5.396 | 6.171 | 6.937 | 7.691

CNc1ccccc1 + O=[N+]([O-])c1ccccc1
Conditions | viscosity [mPa·s]
303.15 K, 101.3 kPa, x1 = 0.5 | 1.52

Oc1ccccc1 + O=[N+]([O-])c1ccccc1
293.15 K, 101 kPa
Conditions | viscosity [mPa·s]
x1 = 0.0537 | 1.975
x1 = 0.113 | 2.041
x1 = 0.2245 | 2.208
x1 = 0.3306 | 2.46
x1 = 0.4448 | 2.845
x1 = 0.5641 | 3.53
x1 = 0.6497 | 4.19
x1 = 0.7623 | 5.4
x1 = 0.8785 | 7.59

C1N2CN3CN1CN(C2)C3 + [2H]O[2H]
viscosity [mPa·s], 101 kPa
Conditions | x1 = 0.004002 | x1 = 0.007971 | x1 = 0.01158 | x1 = 0.01549 | x1 = 0.01969
293.15 K | 1.217 | 1.252 | 1.311 | 1.396 | 1.515
298.15 K | 1.106 | 1.141 | 1.189 | 1.258 | 1.35
300.15 K | 1.007 | 1.036 | 1.077 | 1.135 | 1.219
305.15 K | 0.92 | 0.962 | 1.002 | 1.049 | 1.108

O=S(=O)([O-])[O-].[Li+].[Li+] + [2H]O[2H]
viscosity [mPa·s], 101 kPa
Conditions | x1 = 0.005 | x1 = 0.016 | x1 = 0.032 | x1 = 0.052
298.15 K | 1.243 | 1.74 | 2.887 | 5.343
308.15 K | 0.975 | 1.355 | 2.216 | 3.964
318.15 K | 0.802 | 1.102 | 1.77 | 3.084
